Experimental data from PubChem BioAssay (NCI).
Where “and” joins values, the source holds several entries; their conditions need not be identical. Equal entries are not always repeated.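 Interpolation was linear, between the two tested concentrations surrounding the appropriate level; five concentrations were tested over 48 hours in 96-well plates. Here, GI50 denotes the concentration required for 50% inhibition of growth. Definition used: TGI = concentration required for complete inhibition of growth.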

Assays:
Experiment in all cases: NCI tumour cell line growth inhibition, 48 h
[1] = tested on: HL-60(TB) leukemia
[2] = tested on: 786-0 renal
[3] = tested on: HOP-92 NSCLC
[4] = tested on: SW-620 colon
[5] = tested on: A498 renal
[6] = tested on: SNB-75 CNS
[7] = tested on: A549 NSCLC
[8] = tested on: SR leukemia
[9] = tested on: LOX IMVI melanoma
[10] = tested on: SF-268 CNS

Structure (SMILES): CC1=C(C#N)C23C(=O)c4ccccc4C(O)=C2C(=O)C=CC3(O)N1Cc1ccccc1 (stereo not drawn)
- GI50 [1]: 37.8 µM
- TGI [1]: > 100 µM
- GI50 [2]: 44.5 µM
- TGI [2]: > 100 µM
- GI50 [3]: 39.4 µM
- TGI [3]: > 100 µM
- GI50 [4]: 37.1 µM
- TGI [4]: > 100 µM
- GI50 [5]: > 100 µM
- TGI [5]: > 100 µM
- GI50 [6]: 36.6 µM
- TGI [6]: > 100 µM
- GI50 [7]: 72.2 µM
- TGI [7]: > 100 µM
- GI50 [8]: 33.7 µM
- TGI [8]: > 100 µM
- GI50 [9]: 33 µM
- TGI [9]: > 100 µM
- GI50 [10]: 40.3 µM
- TGI [10]: > 100 µM

Structure (SMILES): O=C1c2cccnc2-c2nc(-c3ccccc3[N+](=O)[O-])cc3c2c1nc1ccccc13
- GI50 [1]: > 100 µM
- TGI [1]: > 100 µM
- GI50 [2]: 14.7 µM
- TGI [2]: 35.1 µM
- GI50 [3]: 8.7 µM
- TGI [3]: > 100 µM
- GI50 [4]: 3.27 µM
- TGI [4]: 18.9 µM
- GI50 [5]: > 77.3 µM
- TGI [5]: > 100 µM
- GI50 [6]: 17.3 µM
- TGI [6]: 52 µM
- GI50 [7]: 14.4 µM
- TGI [7]: 30.1 µM
- GI50 [8]: 96.1 µM
- TGI [8]: > 100 µM
- GI50 [9]: 2.84 µM
- TGI [9]: 13.7 µM
- GI50 [10]: 6.39 µM
- TGI [10]: > 69.1 µM

Structure (SMILES): CCOc1ccccc1-n1c(CN2CCN(C(=O)COc3ccc(CNCCCCCCN4C5CCCC4CC(OC(=O)Nc4cc(C)ccc4OC)C5)cc3)CC2)nc2ccccc2c1=O (stereo not drawn)
- GI50 [1]: 0.64 µM
- TGI [1]: 1.35 µM
- GI50 [2]: 1.58 µM
- TGI [2]: 3.09 µM
- GI50 [3]: 1.37 µM
- TGI [3]: 2.76 µM
- GI50 [4]: 0.757 µM
- TGI [4]: 2 µM
- GI50 [5]: 2.11 µM
- TGI [5]: 4.64 µM
- GI50 [6]: 1.4 µM
- TGI [6]: 2.72 µM
- GI50 [7]: 1.67 µM
- TGI [7]: 3.27 µM
- GI50 [8]: 0.656 µM
- TGI [8]: 1.59 µM
- GI50 [9]: 0.582 µM
- TGI [9]: 1.08 µM
- GI50 [10]: 1.44 µM
- TGI [10]: 2.99 µM

Structure (SMILES): CC1(C)COC(c2ccc(C(F)(F)F)cc2C(O)c2ccc3ccccc3c2)=N1 (stereo not drawn)
- GI50 [1]: > 10 µM
- TGI [1]: > 100 µM
- GI50 [2]: > 100 µM
- TGI [2]: > 100 µM
- TGI [3]: > 100 µM
- GI50 [4]: > 100 µM
- TGI [4]: > 100 µM
- GI50 [5]: > 100 µM
- TGI [5]: > 100 µM
- GI50 [6]: > 10 µM
- TGI [6]: > 10 µM and 37.9 µM
- GI50 [7]: > 10 µM
- TGI [7]: > 100 µM
- TGI [8]: > 10 µM
- GI50 [9]: > 100 µM
- TGI [9]: > 100 µM
- GI50 [10]: > 10 µM
- TGI [10]: > 100 µM

Structure (SMILES): COC(=O)Nc1nc2ccc(S(=O)c3ccccc3)cc2[nH]1 (stereo not drawn)
- GI50 [1]: 2.44 µM
- TGI [1]: 6.5 µM
- GI50 [2]: 5.2 µM
- TGI [2]: > 100 µM
- GI50 [3]: 9.88 µM
- TGI [3]: > 100 µM
- GI50 [4]: 3.63 µM
- TGI [4]: > 100 µM
- GI50 [5]: 15.5 µM
- TGI [5]: > 100 µM
- GI50 [6]: 1.75 µM
- TGI [6]: 5.75 µM
- GI50 [7]: 5.48 µM
- TGI [7]: > 100 µM
- GI50 [8]: 2.25 µM
- TGI [8]: > 100 µM
- GI50 [9]: 5.96 µM
- TGI [9]: > 100 µM
- GI50 [10]: > 100 µM
- TGI [10]: > 100 µM

Structure (SMILES): CNC(=O)c1ccccc1Nc1nc(Nc2ccc(N3CCOCC3)cc2OC)ncc1Cl
- GI50 [1]: 0.206 µM
- TGI [1]: > 57.1 µM
- GI50 [2]: 1.03 µM
- TGI [2]: > 35.1 µM
- GI50 [3]: 0.0571 µM
- TGI [3]: 1.03 µM
- GI50 [4]: 0.314 µM
- TGI [4]: > 100 µM
- GI50 [5]: 0.488 µM
- TGI [5]: 2.39 µM
- GI50 [6]: 0.766 µM
- TGI [6]: 5.44 µM
- GI50 [7]: 0.344 µM
- TGI [7]: > 20.4 µM
- GI50 [8]: 0.0251 µM
- TGI [8]: 3.25 µM
- GI50 [9]: 0.401 µM
- TGI [9]: 3.17 µM
- GI50 [10]: 1.57 µM
- TGI [10]: > 100 µM
